# According to patent EP0785195A1, “Piperidine or tetrahydropyridine derivatives having affinity for the serotonin 5-HTIA receptor” (AMERICAN HOME FOOD PRODUCTS, INC., priority 1996, dated 1997):
# Molecular target: T1, 5-HT1A serotonin receptor (Rattus norvegicus, UniProt P19327)
# T1 construct: from tissue; host or cells: rat brain membranes (inferred from the cited Hall et al. procedure)
# T1 sequence (P19327 1-422): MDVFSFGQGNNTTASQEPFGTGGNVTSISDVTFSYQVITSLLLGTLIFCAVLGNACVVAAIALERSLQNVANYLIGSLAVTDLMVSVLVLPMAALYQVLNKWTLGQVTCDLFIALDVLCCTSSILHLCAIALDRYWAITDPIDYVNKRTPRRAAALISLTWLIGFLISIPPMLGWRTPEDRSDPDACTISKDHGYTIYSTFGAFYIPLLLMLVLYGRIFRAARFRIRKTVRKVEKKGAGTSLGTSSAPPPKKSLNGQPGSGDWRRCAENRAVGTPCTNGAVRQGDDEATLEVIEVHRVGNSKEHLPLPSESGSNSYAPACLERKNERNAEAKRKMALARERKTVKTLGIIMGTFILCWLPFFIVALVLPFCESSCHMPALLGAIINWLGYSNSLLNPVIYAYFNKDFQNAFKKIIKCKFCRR
# Assay: displacement of [3H] 8-OHDPAT from the 5-HT1A serotonin receptor (procedure of Hall et al.)
# Type: binding
# Description: 8-OHDPAT (dipropylaminotetralin) from the 5-HT1A serotonin receptor following the procedure of Hall et al., J. Neurochem. 44, 1685 (1985).
row,SMILES,IC50 [nM]
1,C[C@H](CN1CC=C(c2cccc3[nH]ccc23)CC1)N(C(=O)C1CCCCC1)c1ccccn1 [Example 2],1.7
2,"C[C@H](CN1CC=C(c2cccc3[nH]ccc23)CC1)Nc1ccccn1 [Example 1, {(R)-2-[4-(1H-Indol-4-yl)-(1,2,3,6-tetrahydro-pyridin-1-yl)]-1-methyl-ethyl}-(pyridin-2-yl)-amine]",11.6
